Laboratory results as given in patent publication EP1229025A1, “NOVEL QUINAZOLINE DERIVATIVES” (Japan Energy Corporation, priority 1999, dated 2001).
pIC50: −log10 of the molar value.

These molecules were tested on TNF-α production (assay: TNF-α production inhibiting test using human PBMC (LPS stimulus, ELISA)). Conditions: LPS 10 ng/ml, 16 hours, ELISA of culture supernatants.
Format: cell-based
Method: Example 145: TNF-α production inhibiting test using human PBMC (peripheral blood mononuclear cells)
Preparation of human PBMC
The blood of a healthy person was taken with a vacuum blood-collecting tube (Nipro neotube) and diluted up to two-fold with physiological saline (Otsuka Pharmaceuticals). To the diluted blood was added 6% dextran T-500 (prepared after dissolution in physiological saline (Otsuka Pharmaceuticals) and sterilization with an autoclave) so as to make a final concentration of 1%. The solution was subjected to tumble mixing and allowed to stand at room temperature for 30 minutes to precipitate the erythrocytes. The supernatant was collected and subjected to centrifugation at 20 °C and at 1,500 rpm for 10 minutes. The cells were suspended in 3 ml of RPMI1640 culture medium (Asahi Technogllas) and overlaid on the solution surface of 3 ml Lymphoprep (NYCOMED). Further, with 1.5 ml of RPMI1640 culture medium being added to the tube which had contained the cell suspension liquid, the cells attached to the tube, which had remained uncollected, were suspended for collection and overlaid on the Lymphoprep previously mentioned. This operation was repeated again. After centrifugation at 20 °C and at 2,000 rpm for 30 minutes, there was collected a fraction of peripheral blood mononuclear cells present in the boundary surface between the Lymphoprep and the RPMI1640 culture medium. The cells were washed twice with 10 ml RPMI1640 culture medium to remove the Lymphoprep and then suspended in a RPMI1640 culture medium added with 10% bovine fetal serum (IRVINE SCIENTIFIC), 100 U/ml penicillin and 100 µg/ml streptomycin (hereinafter referred to as cRPMI1640 culture medium). The number of the cells was measured by Tuerk dying, and the cells, after adjustment to 3 × 10^6 cells/ml, were planted in 100 µl/well on a 96-well plate (FALCON). The cells were cultured at 37 °C under 5%CO2 atmosphere for about 5 hours.
Induction of TNF-α production by LPS stimulus
LPS (E.coli 0111:B4, DIFCO), which had been prepared to 10 mg/ml with water and kept at -20, was diluted to 100 µg/ml with cRPMI1640 culture medium and subjected to sterile filtration. The 100 µg/ml LPS was diluted with cRPMI1640 culture medium to prepare 20 ng/ml LPS. A compound to be tested which was dissolved in DMSO at 1,000-fold concentration was diluted to 500-fold with cRPMI1640 culture medium containing 20 ng/ml LPS and added in 100 µl/well to the cells which had been planted on the previously mentioned 96-well plate (final concentration of LPS: 10 ng/ml). For use as the control group, the solutions were made by diluting DMSO of the same volume as in the test compounds with cRPMI1640 culture medium containing 20 ng/ml LPS, and they were added to the cells. These cells were cultured at 37 °C under 5%CO2 atmosphere for 16 hours.
Determination of TNF-α activity (ELISA method)
To the 96-well plate the mouse anti-human TNF-α antibody (prepared to 2 µg/ml with Coating buffer*^1) was added so as to make 100 µl/well and allowed to stand at 4 °C overnight. After 5-times washing with Wash buffer*^2 (300µl/well), the Blocking buffer*^3 was added to the solutions, which were allowed to stand 37 °C for 2 hours. The culture supernatants were diluted up to 5-fold in the plate (supernatant 20 µl being added to 80 µl of cRPMI1640 culture medium). Simultaneously, for using for a calibration curve, a series of dilution of recombinant human TNF-α was prepared arid allowed to stand 37 °C for 1 hour. After 5-times washing with Wash buffer (300 µl /well), biotinylated rabbit anti-human TNF-α antibody (prepared to 0.25 µg/ml with Antibody diluent*^4) was added so as to make 100 µl /well and allowed to stand at 37 °C for 1 hour. After 5-times washing with Wash buffer (300 µl /well), Streptavidin-Horseradish peroxidase(prepared to 1:4000 with Antibody diluent) was added to make 100 µl /well and allowed to stand at 37 °C for 15 minutes. […]

Structure (SMILES) | pIC50
O=[N+]([O-])c1cc2c(NCCc3ccc(Cl)cc3)ncnc2cc1N1CCNCC1 [Example 1, 4-[2-(4-chlorophenyl)ethylamino]-6-nitro-7-(piperazin-1-yl)quinazoline] | 6.10
O=[N+]([O-])c1cc2c(NCCc3ccc(Cl)cc3)ncnc2cc1N1CCCNCC1 [Example 2, 4-[2-(4-chlorophenyl)ethylamino]-7-(homopiperazin-1-yl)-6-nitroquinazoline] | 5.68
NC1CCN(c2cc3ncnc(NCCc4ccc(Cl)cc4)c3cc2[N+](=O)[O-])CC1 [Example 8, 7-(4-aminopiperidin-1-yl)-4-[2-(4-chlorophenyl)ethylamino]-6-nitroquinazoline] | 5.85
NCC1CCN(c2cc3ncnc(NCCc4ccc(Cl)cc4)c3cc2[N+](=O)[O-])CC1 [Example 9, 7-(4-aminomethylpiperidin-1-yl)-4-[2-(4-chlorophenyl)ethylamino]-6-nitroquinazoline] | 5.89
O=[N+]([O-])c1cc2c(NCc3ccccc3)ncnc2cc1N1CCNCC1 [Example 18, 4-(benzylamino)-6-nitro-7-(piperazin-1-yl)quinazoline] | 6.40
O=[N+]([O-])c1cc2c(NCc3ccc(F)cc3)ncnc2cc1N1CCNCC1 [Example 25, 4-(4-fluorobenzylamino)-6-nitro-7-(piperazin-1-yl)quinazoline] | 6.40
O=[N+]([O-])c1cc2c(NCCc3ccc(F)cc3)ncnc2cc1N1CCNCC1 [Example 37, 4-[2-(4-fluorophenyl)ethylamino]-6-nitro-7-(piperazin-1-yl)quinazoline] | 6.22
O=[N+]([O-])c1cc2c(NCCc3cccs3)ncnc2cc1N1CCNCC1 [Example 42, 6-nitro-7-(piperazin-1-yl)-4-[2-(2-thienyl)ethylamino]quinazoline] | 6.30
O=[N+]([O-])c1cc2c(NCCCc3ccccc3)ncnc2cc1N1CCNCC1 [Example 54, 6-nitro-4-[3-(phenyl)propylamino]-7-(piperazin-1-yl)quinazoline] | 6.40
O=[N+]([O-])c1cc2c(NCCc3ccccn3)ncnc2cc1N1CCNCC1 [Example 56, 6-nitro-7-(piperazin-1-yl)-4-[2-(2-pyridyl)ethylamino]quinazoline] | 5.96
O=[N+]([O-])c1cc2c(NCCc3cccnc3)ncnc2cc1N1CCNCC1 [Example 57, 6-nitro-7-(piperazin-1-yl)-4-[2-(3-pyridyl)ethylamino]quinazoline] | 5.64
O=[N+]([O-])c1cc2c(NCc3cccc4ccccc34)ncnc2cc1N1CCNCC1 [Example 59, 4-[(1-naphthyl)methylamino]-6-nitro-7-(piperazin-1-yl)quinazoline] | 6.30
O=[N+]([O-])c1cc2c(NCc3ccc(C(F)(F)F)cc3)ncnc2cc1N1CCNCC1 [Example 63, 6-nitro-7-(piperazin-1-yl)-4-[4-(1,1,1-trifluoiomethyl)benzylamino]quinazoline] | 5.80
COc1ccccc1CNc1ncnc2cc(N3CCNCC3)c([N+](=O)[O-])cc12 [Example 65, 4-(2-methoxylbenzylamino)-6-nitro-7-(piperazin-1-yl)quinazoline] | 5.92
COc1cc(CNc2ncnc3cc(N4CCNCC4)c([N+](=O)[O-])cc23)cc(OC)c1OC [Example 69, 6-nitro-7-(piperazin-1-yl)-4-(3,4,5-trimethoxylbenzylamino)quinazoline] | 5.74
O=[N+]([O-])c1cc2c(NCCc3ccc(Br)cc3)ncnc2cc1N1CCNCC1 [Example 72, 4-[2-(4-bromophenyl)ethylamino]-6-nitro-7-(piperazin-1-yl)quinazoline] | 6.40
Cc1ccc(CCNc2ncnc3cc(N4CCNCC4)c([N+](=O)[O-])cc23)cc1 [Example 75, 4-[2-(4-methylphenyl)ethylamino]-6-nitro-7-(piperazin-1-yl)quinazoline] | 5.72
O=[N+]([O-])c1cc2c(NCCc3ccc(O)cc3)ncnc2cc1N1CCNCC1 [Example 80, 4-[2-(4-hydroxyphenyl)ethylamino]-6-nitro-7-(piperazin-1-yl)quinazoline] | 5.60

More lines, now with the values ahead:

pIC50 | Structure (SMILES)
5.85 | CN1CCN(c2cc3ncnc(NCCc4ccc(Cl)cc4)c3cc2[N+](=O)[O-])CC1 [Example 3, 4-[2-(4-chlorophenyl)ethylamino]-7-(4-methylpiperazin-1-yl)-6-nitroquinazoline]
5.72 | O=[N+]([O-])c1cc2c(NCCc3ccc(Cl)cc3)ncnc2cc1N1CCN(CCO)CC1 [Example 5, 4-[2-(4-chlorophenyl)ethylamino]-7-[4-(2-hydroxyethyl)piperazin-1-yl)-6-nitroquinazoline]
5.60 | O=CN1CCN(c2cc3ncnc(NCCc4ccc(Cl)cc4)c3cc2[N+](=O)[O-])CC1 [Example 6, 4-[2-(4-chlorophenyl)ethylamino]-7-(4-formylpiperazin-1-yl)-6-nitroquinazoline]
6.40 | O=[N+]([O-])c1cc2c(NCCc3ccccc3)ncnc2cc1N1CCNCC1 [Example 10, 6-nitro-4-[2-(phenyl)ethylamino]-7-(piperazin-1-yl)quinazoline]
5.46 | O=[N+]([O-])c1cc2c(NCCc3ccncc3)ncnc2cc1N1CCNCC1 [Example 58, 6-nitro-7-(piperazin-1-yl)-4-[2-(4-pyridyl)ethylamino]quinazoline]
6.22 | O=[N+]([O-])c1cc2c(NCc3ccc(Cl)cc3)ncnc2cc1N1CCNCC1 [Example 60, 4-(4-chlorobenzylamino)-6-nitro-7-(piperazin-1-yl)quinazoline]
6.40 | Cc1ccc(CNc2ncnc3cc(N4CCNCC4)c([N+](=O)[O-])cc23)cc1 [Example 64, 4-(4-methylbenzylamino)-6-nitro-7-(piperazin-1-yl)quinazoline]
6.15 | COc1cccc(CNc2ncnc3cc(N4CCNCC4)c([N+](=O)[O-])cc23)c1 [Example 66, 4-(3-methoxylbenzylamino)-6-nitro-7-(piperazin-1-yl)quinazoline]
6.52 | COc1ccc(CNc2ncnc3cc(N4CCNCC4)c([N+](=O)[O-])cc23)cc1 [Example 67, 4-(4-methoxylbenzylamino)-6-nitro-7-(piperazin-1-yl)quinazoline]
5.62 | COc1ccc(CNc2ncnc3cc(N4CCNCC4)c([N+](=O)[O-])cc23)cc1OC [Example 68, 4-(3,4-dimethoxylbenzylamino)-6-nitro-7-(piperazin-1-yl)quinazoline]
6.22 | O=[N+]([O-])c1cc2c(NCCc3ccccc3Cl)ncnc2cc1N1CCNCC1 [Example 70, 4-[2-(2-chlorophenyl)ethylamino]-6-nitro-7-(piperazin-1-yl)quinazoline]
6.22 | O=[N+]([O-])c1cc2c(NCCc3cccc(Cl)c3)ncnc2cc1N1CCNCC1 [Example 71, 4-[2-(3-chlorophenyl)ethylamino]-6-nitro-7-(piperazin-1-yl)quinazoline]
5.96 | COc1ccc(CCNc2ncnc3cc(N4CCNCC4)c([N+](=O)[O-])cc23)cc1 [Example 78, 4-[2-(4-methoxyphenyl)ethylamino]-6-nitro-7-(piperazin-1-yl)quinazoline]
5.64 | COc1ccc(CCNc2ncnc3cc(N4CCNCC4)c([N+](=O)[O-])cc23)cc1OC [Example 79, 4-[2-(3,4-dimethoxyphenyl)ethylamino]-6-nitro-7-(piperazin-1-yl)quinazoline]
5.60 | Nc1ccc(CCNc2ncnc3cc(N4CCNCC4)c([N+](=O)[O-])cc23)cc1 [Example 81, 4-[2-(4-anilino)ethylamino]-6-nitro-7-(piperazin-1-yl)quinazoline]
